According to patent US11440913B2, “Aminoimidazopyridazines as kinase inhibitors” (BRISTOL-MYERS SQUIBB COMPANY, priority 2017, dated 2022):
Counter-ions that a name gives are not always drawn. Like-named read-outs stand apart in the source and are kept apart here.

Experiments:
[1] = tested on: MLKL phosphorylation in HT29-L23 human colorectal adenocarcinoma cells; experiment: MLKL Phosphorylation High-Content Assay; assay type: cell-based; settings: necroptosis induced with TNFα, SMAC mimetic and Z-VAD, 6 h, read-out: pMLKL (IC50)
In short: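 HT29-L23 cells pretreated 30 min at 37 °C with compound (6.25 to 0.106 μM final), then necroptosis induced with TNFα 35 ng/mL, SMAC mimetic 700 nM and Z-VAD 140 nM for 6 h. Fixed cells immunostained for MLKL pS358 and imaged; IC50 and Ymax from 4-parameter logistic fit.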

[2] = molecular target: His-GST-TVMV-hRIPK1(1-324) (Homo sapiens (Human), UniProt Q13546); experiment: RIPK1 HTRF Binding Assay; settings: HTRF binding, 1 h at rt; read-out: RIPK1 (IC50)
His-GST-TVMV-hRIPK1(1-324), sequence (Q13546 1-324): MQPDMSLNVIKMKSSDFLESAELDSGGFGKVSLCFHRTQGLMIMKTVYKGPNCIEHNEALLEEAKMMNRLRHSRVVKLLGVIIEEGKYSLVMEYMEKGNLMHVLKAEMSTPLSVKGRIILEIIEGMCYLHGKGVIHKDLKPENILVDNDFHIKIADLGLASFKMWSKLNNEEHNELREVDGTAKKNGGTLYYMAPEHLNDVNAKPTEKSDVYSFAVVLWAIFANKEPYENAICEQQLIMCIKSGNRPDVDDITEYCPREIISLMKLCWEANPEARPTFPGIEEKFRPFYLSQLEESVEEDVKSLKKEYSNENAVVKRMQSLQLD
In short: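 HTRF probe-displacement binding: 1 nM His-GST-TVMV-hRIPK1(1-324) (baculovirus construct), 90.6 nM probe, 0.2 nM anti-GST-Tb in 20 mM HEPES, 10 mM MgCl2, 0.015% Brij-35, 4 mM DTT, 0.05 mg/mL BSA. Incubated 1 h at rt; FRET 520/495 nm ratio, inhibition relative to DMSO-only wells.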

Compound	IC50 [1] [nM]	IC50 [2] [nM]	IC50 ([1]; Homo sapiens) [nM]
COc1ncc(-c2ccc3nc(NC(C)=O)cn3n2)cc1C(=O)NC(C)c1cc(F)cc(F)c1OCC1CC1 (stereo not shown) [Example 133, N-{1-[2-(cyclopropylmethoxy)-3,5-difluorophenyl]ethyl}-5-{2-acetamidoimidazo[1,2-b]pyridazin-6-yl}-2-methoxypyridine-3-carboxamide]	8	23	–
COc1cc(C)c(-c2ccc3nc(NC(C)=O)cn3n2)cc1C(=O)NCc1cc(OC(F)(F)F)ccc1F [Example 421, 5-{2-acetamidoimidazo [1,2-b]pyridazin-6-yl}-N-{[2-fluoro-5-(trifluoromethoxy)phenyl]methyl}-2-methoxy-4-methylbenzamide]	–	2	10
CC(=O)Nc1cn2nc(-c3cnc(C)c(CNC(=O)c4cc(OC(F)(F)F)ccc4F)c3)ccc2n1 [Example 1, N-[(5-{2-acetamidoimidazo[1,2-b]pyridazin-6-yl}-2-methylpyridin-3-yl)methyl]-2-fluoro-5-(trifluoromethoxy)benzamide]	–	101	240
COc1ncc(-c2ccc3nc(NC(C)=O)cn3n2)cc1C(=O)NC(C)c1ccccc1OC(F)(F)F (stereo not shown) [Example 139, 5-{2-acetamidoimidazo[1,2-b]pyridazin-6-yl}-2-methoxy-N-{1-[2-(trifluoro-methoxy)phenyl]ethyl}pyridine-3-carboxamide]	25	15	–
COc1ncc(-c2ccc3nc(NC(C)=O)cn3n2)cc1C(=O)NC(C)c1ccccc1OC(F)(F)F (stereo not shown) [Example 137, 5-{2-acetamidoimidazo[1,2-b]pyridazin-6-yl}-2-methoxy-N-{1-[2-(trifluoro-methoxy)phenyl]ethyl}pyridine-3-carboxamide]	–	7	14
CC(=O)Nc1cn2nc(-c3cncc(C(=O)NCc4ncccc4OC4CCCC4)c3)ccc2n1 [Example 241, N-{[3-(cyclopentyloxy)pyridin-2-yl]methyl}-5-{2-acetamidoimidazo [1,2-b]pyridazin-6-yl}pyridine-3-carboxamide]	–	35	277
COc1ncc(-c2ccc3nc(NC(C)=O)cn3n2)cc1C(=O)NC(C)c1cc(F)cc(F)c1OCC1CC1 (stereo not shown) [Example 130, N-{1-[2-(cyclopropylmethoxy)-3,5-difluorophenyl]ethyl}-5-{2-acetamidoimidazo[1,2-b]pyridazin-6-yl}-2-methoxypyridine-3-carboxamide]	3	4	–
COc1nc(C)c(-c2ccc3nc(NC(C)=O)cn3n2)cc1C(=O)NCc1cccc(F)c1OCC1CCC1 [Example 288, N-{[2-(cyclobutylmethoxy)-3-fluorophenyl]methyl}-5-{2-acetamidoimidazo[1,2-b]pyridazin-6-yl}-2-methoxy-6-methylpyridine-3-carboxamide]	–	6	1
[2H]C([2H])([2H])Oc1ncc(-c2ccc3nc(NC(C)=O)cn3n2)cc1C(=O)NCc1cc(F)cc(F)c1OCC1CC1 [Example 55, N-{[2-(cyclopropylmethoxy)-3,5-difluorophenyl]methyl}-5-{2-acetamidoimidazo[1,2-b]pyridazin-6-yl}-2-(D3)methoxypyridine-3-carboxamide, TFA]	–	1	3
CNCC(=O)Nc1cn2nc(-c3cnc(C)c(C(=O)N[C@H](C)c4cc(OC(F)(F)F)ccc4F)c3)ccc2n1 [Example 340, N-[(1R)-1-[2-fluoro-5-(trifluoromethoxy)-phenyl]ethyl]-2-methyl-5-{2-[2-(methylamino)-acetamido]imidazo [1,2-b]pyridazin-6-yl}pyridine-3-carboxamide]	–	67	258
CC(=O)Nc1cn2nc(-c3cc(C(=O)NCc4cc(F)cc(F)c4OC4CCOCC4)c(C)nc3C)ccc2n1 [Example 78, N-{[3,5-difluoro-2-(oxan-4-yloxy)phenyl]methyl}-5-{2-acetamidoimidazo[1,2-b]pyridazin-6-yl}-2,6-dimethylpyridine-3-carboxamide]	–	16	21
CC(=O)Nc1cn2nc(-c3cnc(C(F)(F)F)c(C(=O)NCc4cc(C(F)(F)F)ccc4F)c3)ccc2n1 [Example 30, 5-{2-acetamidoimidazo[1,2-b]pyridazin-6-yl}-N-{[2-fluoro-5-(trifluoromethyl)phenyl]methyl}-2-(trifluoromethyl)pyridine-3-carboxamide]	–	199	341
COc1ncc(-c2ccc3nc(NC(C)=O)cn3n2)cc1C(=O)NCCC(O)c1ccc(Cl)cc1 (stereo not shown) [Example 23, N-[3-(4-chlorophenyl)-3-hydroxypropyl]-5-{2-acetamidoimidazo[1,2-b]pyridazin-6-yl}-2-methoxypyridine-3-carboxamide]	–	124	127
[2H]C([2H])(Oc1c(F)cc(F)cc1CNC(=O)c1cc(-c2ccc3nc(NC(C)=O)c(C)n3n2)cnc1OC)C1CC1 [Example 259, N-({2-[cyclopropyl(deutero)methoxy]-3,5-difluorophenyl}methyl)-5-{2-acetamido-3-methylimidazo[1,2-b]pyridazin-6-yl}-2-methoxypyridine-3-carboxamide]	–	3	13
CC(=O)Nc1cn2nc(-c3cnc(C)c(C(=O)NCc4ccccc4OC(C)C)c3)ccc2n1 [Example 20, 5-{2-acetamidoimidazo[1,2-b]pyridazin-6-yl}-2-methyl-N-{[2-(propan-2-yloxy)phenyl]methyl}pyridine-3-carboxamide]	–	46	63
[2H]C([2H])([2H])Oc1ncc(-c2ccc3nc(NC(C)=O)cn3n2)cc1C(=O)NCc1cc(F)cc(F)c1O[C@@H]1CCOC1 [Example 44, N-({3,5-difluoro-2-[(3R)-oxolan-3-yloxy]phenyl}methyl)-5-{2-acetamidoimidazo[1,2-b]pyridazin-6-yl}-2-(D3)methoxypyridine-3-carboxamide]	–	17	71
CC(=O)Nc1cn2nc(-c3cncc(C(=O)NCCC(C)c4ccccc4)c3)ccc2n1 (stereo not shown) [Example 238, 5-{2-acetamidoimidazo[1,2-b]pyridazin-6-yl}-N-(3-phenylbutyl) pyridine-3-carboxamide]	–	41	356
COc1nc(C)c(-c2ccc3nc(NC(C)=O)cn3n2)cc1C(=O)N(C)Cc1cccc(OC(F)(F)F)c1 [Example 281, 5-{2-acetamidoimidazo[1,2-b]pyridazin-6-yl}-2-methoxy-N,6-dimethyl-N-{[3-(trifluoromethoxy)phenyl]methyl}pyridine-3-carboxamide]	–	6	4
COc1nc(C)c(-c2ccc3nc(NC(C)=O)cn3n2)cc1C(=O)NCc1cc(F)ccc1OCC1CCCC1 [Example 315, N-{[2-(cyclopentylmethoxy)-5-fluorophenyl]methyl}-5-{2-acetamidoimidazo[1,2-b]pyridazin-6-yl}-2-methoxy-6-methylpyridine-3-carboxamide]	–	5	9
[2H]C([2H])([2H])Oc1ncc(-c2ccc3nc(NC(C)=O)cn3n2)cc1C(=O)NCc1cc(OC)ccc1F [Example 40, 5-{2-acetamidoimidazo[1,2-b]pyridazin-6-yl}-N-[(2-fluoro-5-methoxyphenyl)methyl]-2-(D3)methoxypyridine-3-carboxamide]	–	125	265
CC(=O)Nc1cn2nc(-c3ccc(C)c(C(=O)NCc4ccc(F)c(F)c4C(=O)N4CCC(F)(F)C4)c3F)ccc2n1 [Example 411, N-{[2-(3,3-difluoropyrrolidine-1-carbonyl)-3,4-difluorophenyl]methyl}-3-{2-acetamidoimidazo [1,2-b]pyridazin-6-yl}-2-fluoro-6-methylbenzamide]	–	9	25
COc1ncc(-c2ccc3nc(NC(C)=O)cn3n2)cc1C(=O)NCc1ccccc1N1CCOCC1 [Example 162, 5-{2-acetamidoimidazo[1,2-b]pyridazin-6-yl}-2-methoxy-N-{[2-(morpholin-4-yl)phenyl]methyl}pyridine-3-carboxamide]	–	64	140
COc1ncc(-c2ccc3nc(NC(C)=O)cn3n2)cc1C(=O)NCc1cc(F)ccc1OC1CCCC1 [Example 166, N-{[2-(cyclopentyloxy)-5-fluorophenyl]methyl}-5-{2-acetamidoimidazo[1,2-b]pyridazin-6-yl}-2-methoxypyridine-3-carboxamide]	–	4	1
Cc1ncc(-c2ccc3nc(NC(=O)CO)cn3n2)cc1C(=O)NCc1cc(C(F)(F)F)ccc1F [Example 183, N-{[2-fluoro-5-(trifluoromethyl)phenyl]methyl}-5-[2-(2-hydroxyacetamido)imidazo [1,2-b]pyridazin-6-yl]-2-methylpyridine-3-carboxamide]	–	166	392
CC(=O)Nc1cn2nc(-c3cc(C(=O)NCC[C@@H](O)c4ccc(Cl)cc4)cc(F)c3C)ccc2n1 [Example 373, N-[(3R)-3-(4-chlorophenyl)-3-hydroxypropyl]-3-{2-acetamidoimidazo [1,2-b]pyridazin-6-yl}-5-fluoro-4-methylbenzamide]	–	11	51
CC(=O)Nc1nc2ccc(-c3cnc(C)c(C(=O)NCc4cccc(OC(F)(F)F)c4)c3)nn2c1C [Example 251, 5-{2-acetamido-3-methylimidazo[1,2-b]pyridazin-6-yl}-2-methyl-N-{[3-(trifluoromethoxy)phenyl]methyl}pyridine-3-carboxamide]	–	53	305
